From PubChem BioAssay AID2060910 (Molecular Pharmacology Branch, DTP, NCI, 2025)

Test system: 242566-281-R-J2-PDC complex spheroid viability
Assay: Anticancer human tumor 242566-281-R-J2-PDC patient-derived pancreatic carcinoma cell line growth inhibition [RAS]
Conditions: for IC50: curve of first compound; for viability, T/C: stronger effect = lower value
From the text: RAS pathway inhibitors in Combinations in Complex Spheroids
A high-throughput screen of multi-cell type tumor spheroids was designed to identify active combinations of RAS pathway inhibitors and targeted small molecules. Complex spheroids include a stromal component modeled by human endothelial cells (HUVEC) and fibroblasts modeled by human mesenchymal stem cells (MSCs). The concentration ranges selected for each drug and investigational agent were based upon clinically achievable concentrations if the clinical Cmax of the agent was known.
Compounds. The drugs and investigational agents: abemaciclib (NSC768073), cobimetinib (NSC768068), divarasib (GDC6063, NSC841802), docetaxel (NSC628503), GDC-1971 (RLY-1971, NSC841576), gemcitabine (NSC613327), inavolisib (NSC800729), ipatasertib (NSC767898), KB-0742 (NSC834161), MRTX-1133 (NSC836407), osimertinib (NSC779217), RMC-4630 (NSC839698), RMC-6236 (NSC851965), RMC-6291 (NSC852671), Ro-3306 (NSC812927), sapanisertib (NSC764658), SN-38 (NSC673596), staurosporine (NSC755774), SY5609 (NSC837396), and tovorafenib (DAY101, NSC766906), were obtained from the National Cancer Institute (NCI) Developmental Therapeutics Program Chemical Repository. The FDA-approved anticancer drug set is available from the NCI Developmental Therapeutics Program. […] The stock solutions were prepared in dimethyl sulfoxide (DMSO, Sigma-Aldrich, St. Louis, MO, cat. D2650) at 800-fold the tested concentration and stored at -70 degrees C prior to their use. All drugs and investigational agents were tested over a range starting from a high concentration at or near the clinical Cmax and decreasing in half-log increments. If the clinical Cmax for an agent had not been determined, the highest concentration tested was 10 microM.
Cell Culture. All cells were maintained in an incubator at 37 degrees C and 5% CO2 with 95% humidity. The PDC lines were cultured according to standard operating procedures established by the NCI PDMR. All PDCs were thawed and cultured in Matrigel-coated flasks prepared with a working solution of 1X Ham's F-12 nutrient mix, without supplementation (Invitrogen, Waltham, MA, cat. 11765054), 100 U/mL penicillin-streptomycin (Invitrogen, cat. 15140122), and 2.5% Matrigel (Corning Inc., Corning, NY, cat. 354248) for the first three passages. The 362531-283-R-J2-PDC and 782815-120-R-J1-PDC lines were cultured in 6C/Colon 1B media, which includes advanced DMEM/F-12 (Thermo Fisher Scientific, cat. 12634028), 10 mM HEPES (Thermo Fisher Scientific, cat. 15630080), 1X GlutaMAX supplement (Thermo Fisher Scientific, cat. 35050061), 0.1 mg/mL primocin (InvivoGen, San Diego, CA, cat. ant-pm-2), 10% defined fetal bovine serum, heat inactivated (HyClone Laboratories Inc., Logan, UT, cat. SH30070.03HI), 50% L-WRN conditioned media (ATCC, cat. CRL-3276), 1.25 mM N-Acetyl-L-cysteine (Sigma-Aldrich, cat. A9165), 10 mM nicotinamide (Sigma-Aldrich, cat. N0636), 1X B-27 supplement (Thermo Fisher Scientific, cat. 17504044), 1X N-2 supplement (Thermo Fisher Scientific, cat. 17502048), 50 ng/mL human EGF (Thermo Fisher Scientific, cat. PHG0311), and 10 microM Y-27632 dihydrochloride (Tocris Bioscience, cat. 1254). The K12877-001-R-J1-PDC line was cultured in 6I media, which includes all 6C/Colon 1B media plus 10 ng/mL human FGF-10 (PeproTech, cat. 100-26), 1 ng/mL human FGF-2 (PeproTech, cat. 100-18B), 1 µM prostaglandin E2 (Tocris Bioscience, cat. 2296), […] hydrocortisone (Sigma-Aldrich, cat. H4001), and […] bovine insulin (Sigma-Aldrich, cat. I6634). The K86415-001-R-J1-PDC line was cultured in 6D media, which includes all 6C/Colon 1B media components minus the L-WRN conditioned media. The 485176-168-R4-J1-PDC was cultured in PANC media, which includes all 6C/Colon 1B media plus 100 ng/mL human FGF-10 (PeproTech, cat. 100-26), 500 nM SB-431542 (Selleckchem, cat. S1067), and 10 nM gastrin (Tocris Bioscience, cat. 3006). […]
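Further: spheroids exposed to compound for 7 days before readout.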
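Wherever viability, T/C is given: 100% = DMSO vehicle control wells.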

## Nc1ccn(C2OC(CO)C(O)C2(F)F)c(=O)n1 (configuration not stated) + CCn1c(-c2cccnc2C(C)OC)c2c3cc(ccc31)N1CCOC(CC(NC(=O)C(C(C)C)N(C)C(=O)C3(F)CCN(C(=O)C#CC(C)(C)N(C)C)CC3)C(=O)N3CCCC(N3)C(=O)OCC(C)(C)C2)C1
Second compound 0.000949 µM
  IC50: 53 nM
Second compound 0.003 µM
  IC50: 72.2 nM
Second compound 0.00949 µM
  IC50: 90.1 nM
Second compound 0.03 µM
  IC50: 67.9 nM
Second compound 0.0949 µM
  IC50: 75.3 nM
Second compound 0.3 µM
  IC50: 50.5 nM
Second compound 0.000949 µM, first compound 0.00316 µM
  viability, T/C: 114%
Second compound 0.000949 µM, first compound 0.01 µM
  viability, T/C: 88%
Second compound 0.000949 µM, first compound 0.0316 µM
  viability, T/C: 50.5%
Second compound 0.000949 µM, first compound 0.1 µM
  viability, T/C: 45.3%
Second compound 0.000949 µM, first compound 0.316 µM
  viability, T/C: 23.3%
Second compound 0.000949 µM, first compound 1 µM
  viability, T/C: 11.2%
Second compound 0.003 µM, first compound 0.00316 µM
  viability, T/C: 104%
Second compound 0.003 µM, first compound 0.01 µM
  viability, T/C: 87.2%
Second compound 0.003 µM, first compound 0.0316 µM
  viability, T/C: 71.2%
Second compound 0.003 µM, first compound 0.1 µM
  viability, T/C: 42%
Second compound 0.003 µM, first compound 0.316 µM
  viability, T/C: 21.2%
Second compound 0.003 µM, first compound 1 µM
  viability, T/C: 11.6%
Second compound 0.00949 µM, first compound 0.00316 µM
  viability, T/C: 104%
Second compound 0.00949 µM, first compound 0.01 µM
  viability, T/C: 92.3%
Second compound 0.00949 µM, first compound 0.0316 µM
  viability, T/C: 81.2%
Second compound 0.00949 µM, first compound 0.1 µM
  viability, T/C: 46.6%
Second compound 0.00949 µM, first compound 0.316 µM
  viability, T/C: 21.6%
Second compound 0.00949 µM, first compound 1 µM
  viability, T/C: 13.2%
Second compound 0.03 µM, first compound 0.00316 µM
  viability, T/C: 101%
Second compound 0.03 µM, first compound 0.01 µM
  viability, T/C: 96%
Second compound 0.03 µM, first compound 0.0316 µM
  viability, T/C: 68.5%
Second compound 0.03 µM, first compound 0.1 µM
  viability, T/C: 41.9%
Second compound 0.03 µM, first compound 0.316 µM
  viability, T/C: 16.4%
Second compound 0.03 µM, first compound 1 µM
  viability, T/C: 12%
Second compound 0.0949 µM, first compound 0.00316 µM
  viability, T/C: 86.4%
Second compound 0.0949 µM, first compound 0.01 µM
  viability, T/C: 87.1%
Second compound 0.0949 µM, first compound 0.0316 µM
  viability, T/C: 64.7%
Second compound 0.0949 µM, first compound 0.1 µM
  viability, T/C: 49.2%
Second compound 0.0949 µM, first compound 0.316 µM
  viability, T/C: 14.1%
Second compound 0.0949 µM, first compound 1 µM
  viability, T/C: 13.4%
Second compound 0.3 µM, first compound 0.00316 µM
  viability, T/C: 91.7%
Second compound 0.3 µM, first compound 0.01 µM
  viability, T/C: 81.8%
Second compound 0.3 µM, first compound 0.0316 µM
  viability, T/C: 65.6%
Second compound 0.3 µM, first compound 0.1 µM
  viability, T/C: 28.4%
Second compound 0.3 µM, first compound 0.316 µM
  viability, T/C: 15.5%
Second compound 0.3 µM, first compound 1 µM
  viability, T/C: 10.1%
